What all share (assay type): biochemical
One assay concerns the target T1, Human PDE4A3 (Homo sapiens, UniProt P27815).
T1 construct: His6 (N); FLAG (C); made in house; host or cells: insect cells (baculovirus, pFastBac)
The experiment in a line: PDE4A3 Scintillation Proximity Assay (SPA), inhibition of enzyme activity. Conditions: geometric mean of 2-7 determinations unless otherwise indicated (b: ≥8 determinations; c: single determination), 1 μM cAMP, 30 min at 25° C., read-out: Human PDE4A FL. The source says:
(§1) Human PDE4A3 coding sequence (amino acids 2 to 825 from the sequence with accession number NP_001104779) was cloned into the baculovirus expression vector pFastBac (Invitrogen) engineered to include an N-terminal His6 affinity tag and a c-terminal FLAG affinity tag to aid in purification. The recombinant Bacmid was isolated and used to transfect insect cells to generate a viral stock. To generate cell paste for purification, insect cells were infected with the virus stock and cells were harvested 72 hours after infection. Insect cell paste was lysed and after centrifugation, the supernatant was batch bound to Ni-NTA agarose (GE Healthcare) and eluted with 250 mM imidazole. This eluate was diluted with FLAG buffer (50 mM Tris HCL pH 7.5, 100 mM NaCl, 5% Glycerol, 1 mM TCEP with protease inhibitors) and batch bound to ant-FLAG M2 agarose (Sigma) overnight at 4° C. The agarose was packed into a column, washed with buffer and eluted with buffer containing elute using 250 ug/ml Flag-peptide. Fractions were analyzed using SDS-PAGE Coomassie blue staining and pooled based on purity. Pooled fractions were chromatographed on a S200 120 ml column (GE Healthcare) in 50 mM Tris HCL pH 7.5, 150 mM NaCl, 10% Glycerol, 2 mM TCEP with protease inhibitors. PDE4A3 fractions were analyzed by SDS-PAGE Coomassie blue staining, pooled based on purity, dialyzed against 50 mM Tris HCL pH 7.5, 100 mM NaCl, 20% Glycerol, 2 mM TCEP, frozen and stored at −80° C.
(§2) The PDE4A3, PDE4B1, PDE4C1 and PDE4D3 assays use the Scintillation Proximity Assay (SPA) technology to measure the inhibition of human recombinant […], PDE4C1, and PDE4D3 enzyme activity by compounds in vitro. The PDE4A1, PDE4B3, PDE4C1, and PDE4D3 assays are run in parallel using identical parameters, except for the concentration of enzyme (80 pM PDE4A3, 40 pM PDE4B3, 40 pM PDE4C1 and 10 pM PDE4D). The assays are performed in a 384-well format with 50 uL assay buffer (50 mM TRIS pH7.5; 1.3 mM MgCl2; 0.01% Brij) containing enough PDE4A3, PDE4B1, PDE4C1, and PDE4D to convert ˜20% of substrate (1 μM cAMP consisting of 20 nM 3H-cAMP+[…] cold cAMP) and a range of inhibitors. Reactions are incubated for 30 min at 25° C. The addition of 20 uL of 8 mg/ml yitrium silicate SPA beads (Perkin Elmer) stops the reaction. The plates are sealed (TopSeal, Perkin Elmer) and the beads are allowed to settle for 8 hrs, after which they are read on the Trilux Microbeta overnight.

Another assay addresses T2, Human PDE4B1 (Homo sapiens, UniProt Q07343, S133E/S654A/S659A/S661A).
T2 construct: His6 (N); thrombin cleavage site (N); made in house; host or cells: insect cells (baculovirus, pFastBac)
The experiment in a line: PDE4B1 Scintillation Proximity Assay (SPA), inhibition of enzyme activity. Conditions: geometric mean of 2-7 determinations unless otherwise indicated (b: ≥8 determinations; c: single determination); 1 μM cAMP, 30 min at 25° C.; read-out: Human PDE4B FL; IC50. On the procedure: The recombinant Bacmid was isolated and used to transfect insect cells to generate a viral stock. To generate cell paste for purification, insect cells were infected with the virus stock and cells were harvested 72 hours after infection as described in Seeger, T. F. et al., Brain Research 985 (2003) 113-126. Insect cell paste was lysed and after centrifugation, the supernatant was chromatographed on Ni-NTA agarose (Qiagen) as described in Seeger, T. F. et al., Brain Research 985 (2003) 113-126. Ni-NTA agarose eluting fractions containing PDE4 were pooled, diluted with Q buffer A (20 mM Tris HCl pH 8, 5% glycerol, 1 mM TCEP) to reduce NaCl to ˜100 mM and loaded on a Source 15Q (GE Healthcare) column. After washing with Q buffer A/10% buffer B to baseline, PDE4D was eluted with a gradient from 10% to 60% of Buffer B (20 mM Tris HCl pH 8, 1 M NaCl, 5% glycerol, 1 mM TCEP). PDE4D fractions were analyzed by SDS-PAGE Coomassie blue staining, pooled based on purity, frozen and stored at −80° C.
as §2

For another assay, the target named is T3, Human PDE4C1 (Homo sapiens, UniProt Q08493).
T3 construct: His6 (N); FLAG (C); made in house; host or cells: insect cells (baculovirus, pFastBac)
The assay can be described thus: PDE4C1 Scintillation Proximity Assay (SPA), inhibition of enzyme activity. Conditions: geometric mean of 2-7 determinations unless otherwise indicated (b: ≥8 determinations; c: single determination), 1 μM cAMP, 30 min at 25° C., read-out: Human PDE4C FL. Here is the method:
as §1, with “The” for “Human PDE4A3 coding sequence (amino acids 2 to 825 from the sequence with accession number NP_001104779) was cloned into the baculovirus expression vector pFastBac (Invitrogen) engineered to include an N-terminal His6 affinity tag and a c-terminal FLAG affinity tag to aid in purification. The”, “PDE4C1” for “PDE4A3”
as §2

The target in another assay is T4, human PDE4D3 (Homo sapiens, UniProt Q08499).
T4 construct: His6 (C); made in house; host or cells: insect cells (baculovirus, pFastBac)
The experiment in a line: PDE4D3 Scintillation Proximity Assay (SPA), inhibition of enzyme activity. As to conditions: geometric mean of 2-7 determinations unless otherwise indicated (b: ≥8 determinations; c: single determination); 1 μM cAMP, 30 min at 25° C.; read-out: Human PDE4D FL; IC50. Here is the method:
The recombinant Bacmid was isolated and used to transfect insect cells to generate a viral stock. To generate cell paste for purification, insect cells were infected and cells were harvested 72 hours after infection. Insect cell paste was lysed and after centrifugation, the supernatant was chromatographed on Ni-NTA agarose (Qiagen) as described in Seeger, T. F. et al., Brain Research 985 (2003) 113-126. Ni-NTA agarose eluting fractions containing PDE4 were pooled, diluted with Q Buffer A (50 mM Tris HCl pH 8, 4% glycerol, 100 mM NaCl, 1 mM TCEP, Protease inhibitors EDTA-free (Roche)) to reduce NaCl to ˜200 mM, and loaded on a Q Sepharose (GE Healthcare) column. After washing with Q buffer A to baseline, PDE4D was eluted with a gradient from 10% to 60% of Buffer B (50 mM Tris HCl pH 8, 1 M NaCl, 4% glycerol, 1 mM TCEP). PDE4D fractions were analyzed by SDS-PAGE Coomassie blue staining, pooled based on purity, frozen and stored at −80° C.
as §2

Molecules are shown by their SMILES. Counter-ions that a name gives are not always drawn. Bounds are passed on as bounds.

T4 sequence (Q08499 186-808): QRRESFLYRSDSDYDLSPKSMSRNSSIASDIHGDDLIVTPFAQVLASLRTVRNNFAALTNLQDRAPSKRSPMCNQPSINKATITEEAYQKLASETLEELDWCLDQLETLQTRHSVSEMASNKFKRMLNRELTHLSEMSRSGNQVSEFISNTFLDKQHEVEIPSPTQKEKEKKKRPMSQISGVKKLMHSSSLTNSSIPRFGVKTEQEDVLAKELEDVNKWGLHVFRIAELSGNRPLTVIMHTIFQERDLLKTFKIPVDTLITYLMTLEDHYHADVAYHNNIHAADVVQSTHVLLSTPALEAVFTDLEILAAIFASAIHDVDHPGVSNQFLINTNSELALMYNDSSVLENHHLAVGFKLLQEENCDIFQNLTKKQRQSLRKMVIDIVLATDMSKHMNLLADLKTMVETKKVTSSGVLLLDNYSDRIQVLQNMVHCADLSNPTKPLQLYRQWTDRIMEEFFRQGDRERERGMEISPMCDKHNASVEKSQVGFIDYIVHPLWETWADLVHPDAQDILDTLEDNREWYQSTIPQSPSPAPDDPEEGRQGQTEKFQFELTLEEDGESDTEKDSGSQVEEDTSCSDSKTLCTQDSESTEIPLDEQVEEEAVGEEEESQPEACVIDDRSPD
T3 sequence (Q08493 2-712): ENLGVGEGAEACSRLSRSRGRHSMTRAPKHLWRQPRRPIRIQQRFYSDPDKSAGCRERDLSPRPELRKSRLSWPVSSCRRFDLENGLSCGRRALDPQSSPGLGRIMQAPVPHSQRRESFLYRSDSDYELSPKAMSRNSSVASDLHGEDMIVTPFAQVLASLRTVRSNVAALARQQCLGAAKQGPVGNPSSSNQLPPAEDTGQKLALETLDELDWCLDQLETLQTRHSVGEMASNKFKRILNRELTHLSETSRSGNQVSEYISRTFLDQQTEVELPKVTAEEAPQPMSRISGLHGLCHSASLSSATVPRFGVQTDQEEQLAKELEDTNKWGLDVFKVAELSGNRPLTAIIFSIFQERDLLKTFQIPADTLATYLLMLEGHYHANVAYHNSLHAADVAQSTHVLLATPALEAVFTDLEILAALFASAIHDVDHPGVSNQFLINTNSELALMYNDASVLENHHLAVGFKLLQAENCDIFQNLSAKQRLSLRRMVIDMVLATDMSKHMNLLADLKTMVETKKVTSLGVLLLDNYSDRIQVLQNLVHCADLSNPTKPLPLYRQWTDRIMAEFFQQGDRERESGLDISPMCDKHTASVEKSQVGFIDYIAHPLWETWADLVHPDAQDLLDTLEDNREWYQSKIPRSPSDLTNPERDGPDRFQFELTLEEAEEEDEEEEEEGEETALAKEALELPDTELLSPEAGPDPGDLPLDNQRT
T2 sequence (Q07343 122-736 S133E/S654A/S659A/S661A): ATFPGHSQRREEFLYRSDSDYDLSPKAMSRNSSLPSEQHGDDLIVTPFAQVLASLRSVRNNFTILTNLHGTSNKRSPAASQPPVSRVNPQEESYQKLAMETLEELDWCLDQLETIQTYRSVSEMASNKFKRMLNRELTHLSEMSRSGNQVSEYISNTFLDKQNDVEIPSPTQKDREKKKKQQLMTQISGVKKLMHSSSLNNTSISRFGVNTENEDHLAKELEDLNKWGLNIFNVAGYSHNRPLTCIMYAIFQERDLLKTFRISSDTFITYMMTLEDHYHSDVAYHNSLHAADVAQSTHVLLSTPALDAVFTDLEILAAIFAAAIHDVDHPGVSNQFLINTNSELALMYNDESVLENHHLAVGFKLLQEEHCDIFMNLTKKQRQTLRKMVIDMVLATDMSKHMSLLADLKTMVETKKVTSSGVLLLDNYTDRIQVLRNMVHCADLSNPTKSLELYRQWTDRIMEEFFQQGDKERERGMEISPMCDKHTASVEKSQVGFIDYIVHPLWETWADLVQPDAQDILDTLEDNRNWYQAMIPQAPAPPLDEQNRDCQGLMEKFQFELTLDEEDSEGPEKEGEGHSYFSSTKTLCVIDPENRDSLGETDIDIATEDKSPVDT
T1 sequence (P27815 2-825 isoform P27815-6): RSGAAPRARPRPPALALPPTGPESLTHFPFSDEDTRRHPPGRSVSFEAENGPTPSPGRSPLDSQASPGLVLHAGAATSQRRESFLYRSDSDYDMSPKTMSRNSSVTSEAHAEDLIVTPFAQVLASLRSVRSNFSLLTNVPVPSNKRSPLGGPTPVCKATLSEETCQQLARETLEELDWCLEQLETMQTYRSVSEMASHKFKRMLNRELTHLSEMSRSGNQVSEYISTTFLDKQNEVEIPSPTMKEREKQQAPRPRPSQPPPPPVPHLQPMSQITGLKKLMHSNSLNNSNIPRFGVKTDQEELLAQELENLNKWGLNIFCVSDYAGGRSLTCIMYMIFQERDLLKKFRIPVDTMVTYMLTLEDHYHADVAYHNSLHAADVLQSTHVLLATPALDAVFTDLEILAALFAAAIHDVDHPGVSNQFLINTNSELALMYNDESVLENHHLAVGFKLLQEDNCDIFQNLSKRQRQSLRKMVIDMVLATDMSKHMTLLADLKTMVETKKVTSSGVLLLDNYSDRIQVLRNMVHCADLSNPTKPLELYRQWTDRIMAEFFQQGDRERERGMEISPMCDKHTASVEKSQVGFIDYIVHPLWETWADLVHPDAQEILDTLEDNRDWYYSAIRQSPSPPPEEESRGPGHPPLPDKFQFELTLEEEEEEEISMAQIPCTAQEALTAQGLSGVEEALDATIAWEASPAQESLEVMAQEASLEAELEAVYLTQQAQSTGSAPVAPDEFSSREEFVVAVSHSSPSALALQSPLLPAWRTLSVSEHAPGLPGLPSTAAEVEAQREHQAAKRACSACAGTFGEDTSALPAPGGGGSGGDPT

With `CCCC(=O)Nc1nn2cccnc2c1-c1ccc(Cl)c(F)c1` [Example 4, N-[3-(4-Chloro-3-fluorophenyl)pyrazolo[1,5-a]pyrimidin-2-yl]butanamide], the IC50 at Human PDE4A3 is 553 nM; at Human PDE4B1 it was 894 nM; at Human PDE4C1, 1540 nM; on human PDE4D3, more than 30000 nM.
The corresponding values for `N#Cc1cc(F)c(-c2c(C(=O)N3CCC3)nn3cccnc23)cc1F` [Example 46, 4-[2-(azetidin-1-ylcarbonyl)pyrazolo[1,5-a]pyrimidin-3-yl]-2,5-difluorobenzonitrile] are 14.7 nM, 54.5 nM, 44 nM and 979 nM.
In the case of `Cc1cc(Cl)ccc1-c1c(C(=O)NC2CC2)nn2cccnc12` [Example 6, 3-(4-Chloro-2-methylphenyl)-N-cyclopropylpyrazolo[1,5-a]pyrimidine-2-carboxamide], the IC50 at Human PDE4A3 is 28.7 nM; on Human PDE4B1, 55.2 nM; on Human PDE4C1 it was 66 nM; at human PDE4D3 it was more than 10400 nM.
In the case of `CC1(NC(=O)c2nn3cccnc3c2-c2ccc(Cl)cc2)CC1` [Example 11, 3-(4-chlorophenyl)-N-(1-methylcyclopropyl)pyrazolo[1,5-a]pyrimidine-2-carboxamide], the IC50 at Human PDE4A3 is 80.8 nM; on Human PDE4B1, 62.4 nM; on Human PDE4C1 it was 276 nM; on human PDE4D3 it was more than 10700 nM.
`Cc1cc(C#N)c(F)cc1-c1c(C(=O)NC2CCC2)nn2cccnc12` [Example 22, 3-(4-cyano-5-fluoro-2-methylphenyl)-N-cyclobutylpyrazolo[1,5-a]pyrimidine-2-carboxamide]: the IC50 on Human PDE4A3 amounted to 167 nM; at Human PDE4B1, 273 nM; on Human PDE4C1, 124 nM; on human PDE4D3 it was 8810 nM.
Take `CN(C(=O)c1nn2cccnc2c1-c1ccc(Cl)cc1)C1CC1` [Example 35, 3-(4-chlorophenyl)-N-cyclopropyl-N-methylpyrazolo[1,5-a]pyrimidine-2-carboxamide, hydrochloride salt]: the IC50 was 1110 nM on Human PDE4A3, 1860 nM at Human PDE4B1, 710 nM at Human PDE4C1 and more than 30000 nM at human PDE4D3.
For `O=C(c1nn2cccnc2c1-c1ccc(Cl)cc1)N1CCC1` [Example 1, Azetidin-1-yl[3-(4-chlorophenyl)pyrazolo[1,5-a]pyrimidin-2-yl]methanone], the IC50 is 17.9 nM on Human PDE4A3, 52.7 nM at Human PDE4B1, 84.2 nM on Human PDE4C1 and more than 9300 nM on human PDE4D3.
Take `CCNC(=O)c1nn2cccnc2c1-c1ccc(Cl)cc1` [Example 52, 3-(4-chlorophenyl)-N-ethylpyrazolo[1,5-a]pyrimidine-2-carboxamide]: the IC50 on Human PDE4A3 worked out at 142 nM; on Human PDE4B1, 234 nM; on Human PDE4C1, 115 nM; on human PDE4D3, 5930 nM.
The corresponding values for `O=C(NC1CC1)c1nn2cccnc2c1-c1ccc(Cl)c(F)c1F` [Example 71, 3-(4-chloro-2,3-difluorophenyl)-N-cyclopropylpyrazolo[1,5-a]pyrimidine-2-carboxamide] are 10.2 nM, 25.5 nM, 11.1 nM and 797 nM.
The like results for `O=C(NC1CC1)c1nn2cccnc2c1-c1cc(Cl)ccc1F` [Example 13, 3-(5-chloro-2-fluorophenyl)-N-cyclopropylpyrazolo[1,5-a]pyrimidine-2-carboxamide] were, in that order, 27.2 nM, 57.9 nM, 57.9 nM and 2460 nM.
The corresponding values for `O=C(N[C@@H]1C[C@@H]1F)c1nn2cccnc2c1-c1ccc(Cl)c(F)c1` [Example 28, 3-(4-chloro-3-fluorophenyl)-N-[(1R,2S)-2-fluorocyclopropyl]pyrazolo[1,5-a]pyrimidine-2-carboxamide] are 14.4 nM, 3.7 nM, 19.9 nM and 140 nM.

(Values after patent US10131669B2, “Pyrazolopyrimidine compounds” (Pfizer Inc., priority 2014, dated 2018).)
